Data as given in patent US7504420B2, “Compounds which inhibit beta-secretase activity and methods of use” (CoMentis, Inc., priority 2005, dated 2009).
Counter-ions that a name gives are not always drawn. Like-named read-outs stand apart in the source and are kept apart here.

Assays:
memapsin 2 = memapsin 2 (Homo sapiens, UniProt P56817); assay: Inhibition of memapsin 2 catalytic activity (Ki); format: biochemical; settings: memapsin 2, pH 4, 37° C.; read-out: M2K
Method: Potency of compounds were determined by measurement of their inhibition of memapsin 2 catalytic activity toward a fluorescent substrate. […] Briefly, assays were performed at pH 4, 37° C., by pre-incubation of memapsin 2 enzyme with compound for 20 minutes. Activity measure was initiated by addition of a fluorogenic substrate FS-2 (Bachem Americas, Torrance, Calif.). Fluorescent signal increase over time was measured as a rate of hydrolysis of the peptide substrate. […]

[1] = system: Aβ production in Chinese hamster ovary cells that over-express human APP695 with the London and Swedish mutations; assay: Cellular Aβ IC50 determination (Aβ40 sandwich ELISA); settings: 24 h
Method: The potency of compounds against memapsin 2 catalytic activity was determined in a cellular assay of Aβ production. […] Compounds are dissolved in DMSO to concentrations near 1 mM, and diluted into culture media to a final concentration near 4 μM (final 0.4% DMSO). Compounds were diluted serially and applied to cells in multi-well plates 48 h after seeding. Incubation was continued in 5% CO2 at 37 degrees C. for 24 h. Aliquots were removed and assayed for Aβ40 content using a sandwich ELISA (BioSource International). Amount of Aβ40 over the range of concentration of compounds, relative to control incubations, were fit to a 4-parameter IC50 model.

[2] = Cricetulus griseus, CHO, read-out: Cell, Aβ40, CHO cells over-expressing human APP695 (London and Swedish mutations), 24 h

memapsin 2, sequence (P56817 46-501): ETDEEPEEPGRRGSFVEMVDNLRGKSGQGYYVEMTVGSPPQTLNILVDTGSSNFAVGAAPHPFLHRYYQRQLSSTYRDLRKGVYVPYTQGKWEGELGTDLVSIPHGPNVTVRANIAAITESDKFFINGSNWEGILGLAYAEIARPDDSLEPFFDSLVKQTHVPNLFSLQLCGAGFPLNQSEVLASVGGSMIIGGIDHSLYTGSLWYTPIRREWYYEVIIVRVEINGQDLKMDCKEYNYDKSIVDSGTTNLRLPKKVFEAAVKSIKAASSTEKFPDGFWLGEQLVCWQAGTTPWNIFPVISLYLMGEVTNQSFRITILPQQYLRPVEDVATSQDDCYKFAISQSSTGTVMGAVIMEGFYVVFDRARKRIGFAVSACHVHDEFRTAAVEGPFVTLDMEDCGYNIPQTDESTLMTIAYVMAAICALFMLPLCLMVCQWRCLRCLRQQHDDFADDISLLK

SMILES | Ki (memapsin 2) | IC50 [1, 2] | other results
Cc1csc(CN(C)C(=O)c2cccc(C(=O)NC(Cc3ccccc3)C(O)CNCc3cccc(OCC(C)C)c3)c2)n1 (centres unmarked) [N1-(3-hydroxy-4-(3-isobutoxybenzylamino)-1-phenylbutan-2-yl)-N3-methyl-N3-((4-methylthiazol-2-yl)methyl)isophthalamide] | < 300 nM | – | –
COc1cccc(CNCC(O)C(Cc2ccccc2)NC(=O)c2cccc(C(=O)N(C)Cc3coc(C)n3)c2)c1 (centres unmarked) [N1-(3-hydroxy-4-(3-methoxybenzylamino)-1-phenylbutan-2-yl)-N3-methyl-N3-((2-methyloxazol-4-yl)methyl)isophthalamide] | < 300 nM | – | –
COc1cccc(CNCC(O)C(Cc2ccccc2)NC(=O)c2cc(C(=O)NC(C)C3COC4OCCC43)cc(N(C)S(C)(=O)=O)c2)c1 (centres unmarked) [N1-(1-(hexahydrofuro[2,3-b]furan-3-yl)ethyl)-N3-(3-hydroxy-4-(3-methoxybenzylamino)-1-phenylbutan-2-yl)-5-(N-methylmethylsulfonamido)isophthalamide] | > 501 nM | – | –
COc1cccc(CN(CC(O)C(Cc2ccccc2)NC(=O)c2cc(C(=O)NC(C)c3ccccc3)cc(N(C)S(C)(=O)=O)c2)C(=O)CCCC(=O)NCc2cccnc2)c1 (centres unmarked) [N1-(3-hydroxy-4-(N-(3-methoxybenzyl)-5-oxo-5-(pyridin-3-ylmethylamino)pentanamido)-1-phenylbutan-2-yl)-5-(N-methylmethylsulfonamido)-N3-(1-phenylethyl)isophthalamide] | – | > 5 µM | –
COc1cccc(CNCC(O)C(Cc2ccccc2)NC(=O)c2cccc(C(=O)N(Cc3nc(C)cs3)C3CCCC3)c2)c1 (centres unmarked) [N1-cyclopentyl-N3-(3-hydroxy-4-(3-methoxybenzylamino)-1-phenylbutan-2-yl)-N1-((4-methylthiazol-2-yl)methyl)isophthalamide] | < 300 nM | – | –
COc1cccc(CN(CC(O)C(Cc2ccccc2)NC(=O)c2cc(C(=O)NC(C)c3ccccc3)cc(N(C)S(C)(=O)=O)c2)C(=O)CCCC(=O)NCCN2CCOCC2)c1 (centres unmarked) [N1-(3-hydroxy-4-(N-(3-methoxybenzyl)-5-(2-morpholinoethylamino)-5-oxopentanamido)-1-phenylbutan-2-yl)-5-(N-methylmethylsulfonamido)-N3-(1-phenylethyl)isophthalamide] | – | > 5 µM | –
COc1cccc(CNCC(O)C(Cc2ccccc2)NC(=O)c2cc(C(=O)NC(C)c3cccc(F)c3)cc(N(C)S(C)(=O)=O)c2)c1 (centres unmarked) [N1-(1-(3-fluorophenyl)ethyl)-N3-(3-hydroxy-4-(3-methoxybenzylamino)-1-phenylbutan-2-yl)-5-(N-methylmethylsulfonamido)isophthalamide] | < 300 nM | – | –
COc1cccc(CN(CC(O)C(Cc2ccccc2)NC(=O)c2cc(C(=O)NC(C)c3ccccc3)cc(N(C)S(C)(=O)=O)c2)C(=O)CCCC(=O)NN2CCN(C)CC2)c1 (centres unmarked) [N1-(3-hydroxy-4-(N-(3-methoxybenzyl)-5-(4-methylpiperazin-1-ylamino)-5-oxopentanamido)-1-phenylbutan-2-yl)-5-(N-methylmethylsulfonamido)-N3-(1-phenylethyl)isophthalamide] | – | > 5 µM | –
COc1ccccc1CN1CCC(CNCC(O)C(Cc2ccccc2)NC(=O)c2cc(C(=O)NC(C)c3ccccc3)cc(N(C)S(C)(=O)=O)c2)CC1 (centres unmarked) [N1-(3-hydroxy-4-((1-(2-methoxybenzyl)piperidin-4-yl)methylamino)-1-phenylbutan-2-yl)-5-(N-methylmethylsulfonamido)-N3-(1-phenylethyl)isophthalamide] | – | – | IC50 ([1]; read-out: Cell, Aβ40, CHO cells over-expressing human APP695 (London and Swedish mutations)): 1 to 5 µM
Cc1csc(CN(C)C(=O)c2cccc(C(=O)NC(Cc3ccccc3)C(O)CNCc3ccccc3)c2)n1 (centres unmarked) [N1-(4-(benzylamino)-3-hydroxy-1-phenylbutan-2-yl)-N3-methyl-N3-((4-methylthiazol-2-yl)methyl)isophthalamide] | > 501 nM | – | –
Cc1ccc(CNCC(O)C(Cc2ccccc2)NC(=O)c2cccc(C(=O)N(C)Cc3nc(C)cs3)c2)cc1 (centres unmarked) [N1-(3-hydroxy-4-(4-methylbenzylamino)-1-phenylbutan-2-yl)-N3-methyl-N3-((4-methylthiazol-2-yl)methyl)isophthalamide] | > 501 nM | – | –
COc1ccnc(CNCC(O)C(Cc2ccccc2)NC(=O)c2cc(C(=O)NC(C)c3ccccc3)cc(N(C)S(C)(=O)=O)c2)c1 (centres unmarked) [N1-(3-hydroxy-4-((4-methoxypyridin-2-yl)methylamino)-1-phenylbutan-2-yl)-5-(N-methylmethylsulfonamido)-N3-(1-phenylethyl)isophthalamide] | – | < 1 µM | –
Cc1cc(CNCC(O)C(Cc2ccccc2)NC(=O)c2cc(C(=O)NC(C)c3ccccc3)cc(N(C)S(C)(=O)=O)c2)[nH]n1 (centres unmarked) [N1-(3-hydroxy-4-((3-methyl-1H-pyrazol-5-yl)methylamino)-1-phenylbutan-2-yl)-5-(N-methylmethylsulfonamido)-N3-(1-phenylethyl)isophthalamide] | > 501 nM | – | –
CCOc1cccc(CNCC(O)C(Cc2ccccc2)NC(=O)c2cccc(C(=O)N(C)Cc3nc(C)cs3)c2)c1 (centres unmarked) [N1-(4-(3-ethoxybenzylamino)-3-hydroxy-1-phenylbutan-2-yl)-N3-methyl-N3-((4-methylthiazol-2-yl)methyl)isophthalamide] | < 300 nM | – | –
COc1ccccc1CN1CCC(CNCC(O)C(Cc2ccccc2)NC(=O)c2cc(C(=O)NC(C)c3ccccc3)cc(N(C)S(C)(=O)=O)c2)CC1 (centres unmarked) [N1-(3-hydroxy-4-((1-(2-methoxybenzyl)piperidin-4-yl)methylamino)-1-phenylbutan-2-yl)-5-(N-methylmethylsulfonamido)-N3-(1-phenylethyl)isophthalamide dihydrochloride] | – | – | IC50 ([1]; read-out: Cell, Aβ40, CHO cells over-expressing human APP695 (London and Swedish mutations), dihydrochloride): > 5 µM
COC(=O)CCCC(=O)N(Cc1cccc(OC)c1)CC(O)C(Cc1ccccc1)NC(=O)c1cc(C(=O)NC(C)c2ccccc2)cc(N(C)S(C)(=O)=O)c1 (centres unmarked) [methyl 5-((2-hydroxy-3-(3-(N-methylmethylsulfonamido)-5-(1-phenylethylcarbamoyl)benzamido)-4-phenylbutyl)(3-methoxybenzyl)amino)-5-oxopentanoate] | – | < 1 µM | –
COc1cccc(CNCC(O)C(Cc2cc(F)cc(F)c2)NC(=O)c2cc(C(=O)NC(C)c3ccccc3)cc(N(C)S(C)(=O)=O)c2)c1 (centres unmarked) [N1-(1-(3,5-difluorophenyl)-3-hydroxy-4-(3-methoxybenzylamino)butan-2-yl)-5-(N-methylmethylsulfonamido)-N3-(1-phenylethyl)isophthalamide] | – | < 1 µM | –
COc1cccc(CNCC(O)C(Cc2ccccc2)NC(=O)c2cccc(C(=O)N(C)Cc3cnccn3)c2)c1 (centres unmarked) [N1-(3-hydroxy-4-(3-methoxybenzylamino)-1-phenylbutan-2-yl)-N3-methyl-N3-(pyrazin-2-ylmethyl)isophthalamide] | > 501 nM | – | –
COc1cccc(CN(CC(O)C(Cc2ccccc2)NC(=O)c2cc(C(=O)NC(C)c3ccccc3)cc(N(C)S(C)(=O)=O)c2)C(=O)CCC(=O)NCc2cccnc2)c1 (centres unmarked) [N1-(3-hydroxy-4-(N-(3-methoxybenzyl)-4-oxo-4-(pyridin-3-ylmethylamino)butanamido)-1-phenylbutan-2-yl)-5-(N-methylmethylsulfonamido)-N3-(1-phenylethyl)isophthalamide] | – | > 5 µM | –
CC(NC(=O)c1cc(C(=O)NC(Cc2ccccc2)C(O)CNCc2cn(COCC[Si](C)(C)C)cn2)cc(N(C)S(C)(=O)=O)c1)c1ccccc1 (centres unmarked) [N1-(3-hydroxy-1-phenyl-4-((1-((2-(trimethylsilyl)ethoxy)methyl)-1H-imidazol-4-yl)methylamino)butan-2-yl)-5-(N-methylmethylsulfonamido)-N3-(1-phenylethyl)isophthalamide] | < 300 nM | – | –
CC(C)Cc1cncc(CNCC(O)C(Cc2ccccc2)NC(=O)c2cc(C(=O)NC(C)c3ccccc3)cc(N(C)S(C)(=O)=O)c2)c1 (centres unmarked) [N1-(3-hydroxy-4-((5-isobutylpyridin-3-yl)methylamino)-1-phenylbutan-2-yl)-5-(N-methylmethylsulfonamido)-N3-(1-phenylethyl)isophthalamide] | – | < 1 µM | –
COc1cccc(C(C)NCC(O)C(Cc2ccccc2)NC(=O)c2cccc(C(=O)N(C)Cc3nc(C)cs3)c2)c1 (centres unmarked) [N1-(3-hydroxy-4-(1-(3-methoxyphenyl)ethylamino)-1-phenylbutan-2-yl)-N3-methyl-N3-((4-methylthiazol-2-yl)methyl)isophthalamide] | < 300 nM | – | –
COc1cccc(CNCC(O)C(Cc2ccccc2)NC(=O)c2cccc(C(=O)N(Cc3nc(C)cs3)C3CCCCC3)c2)c1 (centres unmarked) [N1-cyclohexyl-N3-(3-hydroxy-4-(3-methoxybenzylamino)-1-phenylbutan-2-yl)-N1-((4-methylthiazol-2-yl)methyl)isophthalamide] | 301 to 500 nM | – | –
CC(NC(=O)c1cc(C(=O)NC(Cc2ccccc2)C(O)CNCC2CCCN2C(C)C)cc(N(C)S(C)(=O)=O)c1)c1ccccc1 (centres unmarked) [N1-(3-hydroxy-4-((1-isopropylpyrrolidin-2-yl)methylamino)-1-phenylbutan-2-yl)-5-(N-methylmethylsulfonamido)-N3-(1-phenylethyl)isophthalamide] | > 501 nM | – | –
COc1cccc(CNCC(O)C(Cc2ccccc2)NC(=O)c2cccc(C(=O)N(Cc3ccccc3)Cc3nc(C)cs3)c2)c1 (centres unmarked) [N1-benzyl-N3-(3-hydroxy-4-(3-methoxybenzylamino)-1-phenylbutan-2-yl)-N1-((4-methylthiazol-2-yl)methyl)isophthalamide] | < 300 nM | – | –
COc1cccc(CNCC(O)C(Cc2ccccc2)NC(=O)c2cccc(C(=O)N(Cc3nc(C)cs3)CC(C)C)c2)c1 (centres unmarked) [N1-(3-hydroxy-4-(3-methoxybenzylamino)-1-phenylbutan-2-yl)-N3-isobutyl-N3-((4-methylthiazol-2-yl)methyl)isophthalamide] | < 300 nM | – | –
